The values that follow are results of earlier work, collected in US20150177227A1, “CELLULAR AND ANIMAL MODELS FOR SCREENING THERAPEUTIC AGENTS FOR THE TREATMENT OF ALZHEIMER'S DISEASE” (priority 2012, published 2015).

One data set has as its system plaque. Conditions: in vivo.

Consider “solanezumab: humanized antibody from Eli Lilly & Co. shown to clear plaque”, for which the plaque clearance entry in the data set with plaque is on record as “clear plaque”. Further, in the data set on Alzheimer's disease, the “benefit trend in phase II clinical trials” value was “neither antibody showed any trend”.
